# Experimental data reported in publication PMC8854719, “Phase 1A/1B dose-escalation and -expansion study to evaluate the safety, pharmacokinetics, food effects and antitumor activity of pamiparib in advanced solid tumours” (British Journal of Cancer, 2021).
# Columns and labels:
# [1] = tested on: ovarian cancer; settings: Phase 1 study in China (NCT03333915), high-grade ovarian cancer refractory or resistant to platinum; cited from earlier work
# [2] = Food-effects cohort: PK fasted vs high-fat meal; format: in vivo, human
# Protocol: Patients in the food-effects cohort received a single dose of pamiparib 60 mg (based on the RP2D) on day 1 of cycle 1, followed by a 5-day washout; patients then received another single dose of 60 mg on day 6. Seven patients in sequence 1 (fast followed by fed) received pamiparib after a ≥ 10-h fast on day 1 and after consuming a standard high-fat meal (described in the Supplemental Appendix) 30 min prior to drug administration on day 6. Six patients in sequence 2 (fed followed by fast) received pamiparib after a high-fat meal on day 1 and after a ≥ 10-h fast on Day 6. From day 8 of cycle 1 onward, patients received 60-mg BID treatment.
# Pamiparib in plasma was measured using a validated liquid chromatography-tandem–mass spectrometry assay with a lower limit of quantification of 1.0 ng/mL. The collection schedule for blood samples used to assess the PK profile is presented in the Supplemental Appendix. Summary PK parameters, including area under the concentration-time curve from time 0 to 9 h (AUC0-9) or infinity (AUC0-inf), maximal plasma concentration (Cmax) and time to maximal plasma concentration (Tmax), were estimated. The pharmacodynamic (PD) activity of pamiparib was explored through the evaluation of poly(ADP-ribose [PAR]) formation in peripheral blood mononuclear cells (PBMCs) after pamiparib administration. The schedule for blood sample collection (PK and PBMCs) and additional assessment information for PAR levels in PBMCs and pharmacodynamic activity is presented in the Supplemental Appendix. Antitumor activity was assessed by radiographic imaging (computed tomography or magnetic resonance imaging) during screening, within 28 days of first pamiparib dose, every 6 weeks in the first 12 months and every 9 weeks thereafter.
# An example of a recommended United States Food and Drug Administration (US FDA) standard high-fat meal comprises two eggs fried in butter, two strips of bacon, two slices of toast with butter, 4 ounces of hash brown potatoes, and 8 ounces of whole milk.
# The PK profile of pamiparib was assessed based on blood samples collected at predose and 0.5, 1, 2, 4, 6, 9, 24, and 48 hours postdose on Days 1-3 and then at predose and 0.5, 1, 2, 4, 6, and 9 hours postdose on Day 17 of Cycle 1 in Phase 1A. Sparse PK samples were collected in phase 1B Part A. The food effect on the PK of pamiparib was assessed based on blood samples collected at predose and 0.5, 1, 2, 4, 7, 24, and 48 hours postdose on Day 1 and Day 6 of Cycle 1 in phase 1B Part B.
# [3] = tested on: BCRP (breast cancer resistance protein); set-up: method as in PMID 32652442; settings: cited from earlier work
# [4] = Phase 1 portion of NCT03333915, patients in China; cited from earlier work
# [5] = tested on: P-glycoprotein; set-up: method as in PMID 32652442; settings: cited from earlier work
# [6] = tested on: metastatic castration-resistant prostate cancer (mCRPC); experiment: PCWG2 response and PSA progression; format: in vivo, human
# Protocol: (§1) Tumour response was evaluated by RECIST v1.1. For patients with ovarian cancer, tumour response was assessed per RECIST v1.1 and by Gynecologic Cancer Intergroup (GCIG) CA-125 criteria. Tumour response for patients with prostate cancer was assessed by Prostate Cancer Clinical Trials Working Group 2 (PCWG2) criteria. Objective response rate (ORR) was defined as the proportion of patients achieving a confirmed complete response (CR) or partial response (PR) on study treatment. Blood tumour antigens (e.g., carcinoembryonic antigen for colorectal cancer, CA-125 for ovarian cancer and prostate-specific antigen [PSA] for mCRPC) were assessed during screening, every 6 weeks after the first pamiparib dose in the first 12 months, and every 9 weeks thereafter.
# (§2) The safety population comprised all patients in the dose-escalation and dose-expansion phases who received at least one dose of pamiparib (Supplementary Table S2). Patients in the safety analysis set for whom valid pamiparib PK parameters were estimated and for whom evaluable PD results were available represented the PK population and the PD population, respectively. The efficacy-evaluable population included patients in the safety analysis set who had at least one evaluable postbaseline tumour assessment or those who discontinued due to clinical disease progression or early death before tumour assessment could be performed. The EOC efficacy-evaluable population was a subset of the overall efficacy-evaluable population that included patients with EOC from both the dose-escalation and dose-expansion phases. Patients in the dose-expansion phase without measurable disease at baseline per RECIST v1.1 were excluded from the efficacy-evaluable population.
# [7] = tested on: epithelial ovarian cancer (EOC); experiment: GCIG CA-125 response; format: in vivo, human; settings: CA-125–evaluable population (n=12)
# Protocol: as §1
# as §2, with “The EOC efficacy-evaluable population was a subset of the overall efficacy-evaluable population that included patients with EOC from both the dose-escalation and dose-expansion phases. Patients in the dose-expansion phase without measurable disease at baseline per RECIST v1.1 were excluded from the efficacy-evaluable population.” left out
# [8] = tested on: BRCA1-mutant breast cancer xenograft model; set-up: method as in PMID 32652442; settings: cited from earlier work
# [9] = single 60 mg dose, high-fat breakfast vs fasted
structure (smiles),measurement,setting,value
C[C@]12CCCN1CC1=NNC(=O)c3cc(F)cc4[nH]c2c1c34 [pamiparib],Clinical benefit rate,[1],62.5%
same,ORR,[1],25.0%
same,Food effects on pharmacokinetics (in words),[2]; 60 mg single dose,no food effects
same,Tmax,"[2]; human, plasma, oral, single 60 mg dose with a high-fat breakfast, read-out: Median Tmax",7 h
same,Reduction of AUC0-inf with food,[2]; [9],12%
same,Reduction of Cmax with food,[2]; [9],41%
same,Substrate of BCRP,[3],not a substrate
same,"Anaemia, Grade ≥3",[4],27%
same,Substrate of P-glycoprotein,[5],not a substrate
same,Median time to PSA progression,[6]; PSA-evaluable population (n=6),4.2 months
same,PSA progression rate,[6]; PSA-evaluable population (n=6),33.3%
same,Responders per PCWG2 criteria (in words),"[6]; mCRPC, phase 1B Part A",No patients with mCRPC in phase 1B Part A were considered responders
same,GCIG CA-125 response rate,[7],83.3%
same,Median time to CA-125 response,[7],1.38 months
same,Efficacy (tumour regression) compared with olaparib,[8],16 fold
